From publication PMC3458734, “Partial thioamide scan on the lipopeptaibiotic trichogin GA IV. Effects on folding and bioactivity” (Beilstein Journal of Organic Chemistry, 2012)

Key:
[1] = test system: Staphylococcus aureus ATCC 25923; experiment: Antibacterial activity, disk diffusion Bauer-Kirby method; type: cell-based; conditions: Müller-Hinton medium pH 7.2-7.4
Description: (§1) The antimicrobial activities were assessed on a large set of Gram-positive and Gram-negative bacterial strains. […] Peptide antibacterial activity was tested against Gram-positive and Gram-negative bacteria by the standardized disk diffusion Bauer-Kirby method using the Müller-Hinton culture medium at pH 7.2-7.4 as recommended by the National Committee for Clinical Laboratory Standards. The antibacterial activity assay was performed in a similar way to that described in reference. The activity of peptides was tested against clinical isolates of bacteria and reference bacterial strains: Staphylococcus aureus American Type Culture Collection strains (ATCC) 25923, Streptococcus pyogenes ATCC 19615, Escherichia coli ATCC 25922, Pseudomonas aeruginosa ATCC 27853, Klebsiella pneumoniae ATCC 13883, Salmonella entereditis 13076, and Proteus mirabilis ATCC 10975. The well-known antibiotics bacitracin and tetracyclin (10 μg/disk) were used as controls.

[2] = test system: Streptococcus pyogenes ATCC 19615; experiment: as above; type: cell-based; conditions: Müller-Hinton medium pH 7.2-7.4
Description: as §1

Substance: [Leu^11-OMe] trichogin GA IV
- antimicrobial activity on Staphylococcus aureus [1]: active
- antimicrobial activity on Streptococcus pyrogenes [2]: active
